In publication PMC2362650, “Phase I and pharmacokinetic study of the topoisomerase II catalytic inhibitor fostriecin” (British Journal of Cancer, 1999):

Assays:
GLC4/VM20x = tested on: GLC4/VM20x; design: method as in Withoff et al, 1996; details: ref Withoff et al, 1996; cited from earlier work
[1] = Plasma and urine pharmacokinetics (HPLC-UV) in patients after 60-min IV infusion; format: in vivo, human; details: patients who received 12.2 mg m-2 (and above) fostriecin
Description: Fostriecin (CI-920) is a topoisomerase (topo) II catalytic activity inhibitor (Boritzki et al, 1988) (Figure 1). This novel class of topo II-targeting drugs is considered of potential value for treatment of patients with tumours resistant to classic topo II poisons, including anthracyclines and podophyllotoxins (Cummings and Smyth, 1993). The nuclear enzyme topo II is essential for the regulation of DNA conformation (reviewed in Osheroff et al, 1991). Central in its action is the formation of a complex with DNA. Stabilization of this complex by topo II poisons induces DNA damage and cell death (Froelich-Ammon and Osheroff, 1995). Decreased complex formation due to decreased topo II levels is considered to be an important mechanism of tumour-resistance to topo II poisons (Beck and Danks, 1991). The topo II catalytic inhibitor fostriecin is expected to have increased activity against tumour cells with low topo II levels and this was confirmed in in vitro studies (De Jong et al, 1991). […] Because of increased toxi- city of fostriecin in dogs compared to mice, a dose below one-third of the one-tenth mouse equivalent LD10, 2 mg m-2 day-1, was chosen as starting dose in humans (Clinical Brochure Fostriecin, 1991). […] We also performed an analysis of the human pharmacokinetics of fostriecin and ex vivo experiments to investigate if the plasma drug concentrations achieved were sufficient to inhibit a tenipo- side-resistant tumour cell line. The maximum tolerated dose (MTD) of fostriecin could not be established because drug supply was stopped prematurely. However, results of this study may provide a basis for continued clinical development of this agent. PATIENTS AND METHODS Patient selection, drug administration and evaluation Patient eligibility criteria were: histologically confirmed diagnosis of a solid tumour, no longer amenable to established forms of treatment; age 18-75 years; Eastern Cooperative Oncology Group (ECOG) performance status 2; life expectancy 12 weeks; no Phase I and pharmacokinetic study of the topoisomerase II catalytic inhibitor fostriecin RS de Jong1, NH Mulder1, DRA Uges2, DTh Sleijfer1, FJP Hoppener4, HJM Groen3, PHB Willemse1, WTA van der Graaf1 and EGE de Vries1 Departments of 1Medical Oncology, 2Pharmacy and Toxicology, and 3Pulmonary Diseases, University Hospital Groningen, The Netherlands; 4EORTC New Drug Development Office, Amsterdam, The Netherlands Summary We conducted a phase I and pharmacokinetic study of the topoisomerase II catalytic inhibitor fostriecin. Fostriecin was administered intravenously over 60 min on days 1-5 at 4-week intervals. Dose was escalated from 2 mg m-2 day-1 to 20 mg m-2 day-1 in 20 patients. Drug pharmacokinetics was analysed with high performance liquid chromatography with UV-detection. Plasma collected during drug administration was tested in vitro for growth inhibition of a teniposide-resistant small-cell lung cancer (SCLC) cell line. The predominant toxicities were elevated liver transaminases (maximum common toxicity criteria (CTC) grade 4) and serum creatinine (maximum CTC grade 2). […] Duration of elevated alanine-amino transferase (ALT) was dose-limiting in one patient at 20 mg m-2. Other frequent toxicities were grade 1-2 nausea/vomiting, fever and mild fatigue. […] A metabolite, most probably dephosphorylated fostriecin, was detected in plasma and urine. […] However, further escalation seems possible and is warranted to achieve potentially effective drug levels. Fostriecin has a short plasma half-life and longer duration of infusion should be considered. […]

Compound | acquired resistance of GLC4/VM20x compared to GLC4 (GLC4/VM20x) [fold] | metabolite in plasma and urine [1]
COc1cc([C@@H]2c3cc4c(cc3[C@@H](O[C@@H]3O[C@@H]5CO[C@@H](c6cccs6)O[C@H]5[C@H](O)[C@H]3O)[C@H]3COC(=O)[C@H]23)OCO4)cc(OC)c1O [teniposide, reference compound] | 20 | 
C[C@@](O)(/C=C/[C@H]1CC=CC(=O)O1)[C@H](O)C[C@@H](O)\C=C/C=C\C=C\CO [dephosphorylated fostriecin] |  | detected
